The test system of one assay is NCI-H358 (K-Ras G12C). The experiment in a line: CellTiter-Glo cell viability assay, NCI-H358. It is filed as cell-based, human. The note with it: NCI-H358, 5-day treatment, class symbols, read-out: Additional H358 Cell Viability assay data (K-Ras G12C, IC50). The gist of the method:
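Steps: compound dispensed into wells holding cells; incubation to day 5; ~30 min room-temperature equilibration; luminescence read; sample signal divided by mean DMSO signal, times 100; four-parameter logistic curve fit.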

Another assay concerns the target KRAS G12D (Homo sapiens (Human), UniProt P01116+P62937, G12D). The experiment in a line: Ras-Raf (BRAF RBD) disruption / FRET / MOA assay, KRAS G12D. The assay is classed as biochemical. The note with it: Ras-Raf disruption/FRET/MOA assay; class symbols; read-out: KRAS G12D FRET data IC50. The gist of the method: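 A 10-point, 3-fold dilution series topping at 30 μM final was incubated 3 h at 25° C with the Ras/cyclophilin A/BRAF RBD mixture.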

For assay [1], the system named is NCI-H358 cells (K-Ras G12C). The experiment in a line: Potency assay: pERK in NCI-H358 cells. The assay is classed as cell-based, human. The note with it: Homo sapiens, NCI-H358; H358 KRAS G12C; read-out: pERK EC50. A digest of the protocol: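 Inhibition of cellular pERK after a 4 h treatment, detected by AlphaLISA or In-Cell Western. IC50 from a four-parameter concentration-response fit.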

The target in another assay is KRAS Q61H (Homo sapiens (Human), UniProt P01116+P62937, Q61H). The experiment in a line: Ras-Raf (BRAF RBD) disruption / FRET / MOA assay, KRAS Q61H. It is filed as biochemical. The note with it: Ras-Raf disruption/FRET/MOA assay; class symbols; read-out: KRAS Q61H FRET data IC50. A digest of the protocol:
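Compounds (30 μM top final, 10-point 3-fold dilutions) incubated 3 h at 25° C with nucleotide-loaded Ras, cyclophilin A and BRAF RBD. Detection with 10 nM anti-His Eu-W1024 and 50 nM anti-GST allophycocyanin over another 1.5 h. Lowered TR-FRET ratio relative to DMSO wells gives IC50.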

Molecules are shown by their SMILES. pEC50, pIC50: −log10 of the molar value. “And” between values parts separate entries of the source, which are not always exact repeats. Equal entries are not always repeated. Where two headings read alike, the source gives them in different places.

By pIC50 is commonly meant −log10 of the IC50, conventionally taken in molar units. For orientation: pEC50 means the EC50 on a negative log10 scale, so that one unit is a factor of ten.

Chain of KRAS Q61H (P01116-2 other isoform, or with tags, fused parts or gaps Q61H): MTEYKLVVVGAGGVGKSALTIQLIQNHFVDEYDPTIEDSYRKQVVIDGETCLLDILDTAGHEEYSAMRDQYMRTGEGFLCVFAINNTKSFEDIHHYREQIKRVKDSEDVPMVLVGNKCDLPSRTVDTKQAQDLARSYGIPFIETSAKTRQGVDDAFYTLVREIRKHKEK
Chain of KRAS Q61H (P62937 whole entry): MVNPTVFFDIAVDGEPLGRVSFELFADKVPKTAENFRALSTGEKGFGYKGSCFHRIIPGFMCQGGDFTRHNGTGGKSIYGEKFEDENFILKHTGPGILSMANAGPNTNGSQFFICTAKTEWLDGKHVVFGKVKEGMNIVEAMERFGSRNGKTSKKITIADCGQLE
Chain of KRAS G12D (P01116-2 other isoform, or with tags, fused parts or gaps G12D): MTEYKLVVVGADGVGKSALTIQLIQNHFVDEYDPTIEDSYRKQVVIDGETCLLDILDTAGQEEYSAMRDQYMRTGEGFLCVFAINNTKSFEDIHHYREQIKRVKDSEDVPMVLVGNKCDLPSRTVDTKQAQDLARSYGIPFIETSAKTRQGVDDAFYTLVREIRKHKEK
Chain of KRAS G12D (P62937 whole entry): as the sequence (P62937 whole entry) above

`C=CC(=O)N1CC[C@H](C(=O)N(C)[C@H](C(=O)N[C@H]2Cc3cc(O)cc(c3)-c3ccc4c(c3)c(c(-c3cc(C)ccc3[C@H](C)OC)n4CC)CC(C)(C)COC(=O)[C@@H]3CCCN(N3)C2=O)C(C)C)C1` (atropisomer, axis not shown) [Example A167]: the negative logarithm of the IC50 (pIC50) in the assay on NCI-H358 (K-Ras G12C) (Homo sapiens, NCI-H358, 120 h) was 7.00 to 8.00; in the assay on NCI-H358 (K-Ras G12C), over 8.00; on KRAS G12D, < 5.00 and 6.00 to 7.00; on KRAS Q61H, 7.00 to 8.00. For the same molecule, the negative-log EC50 (pEC50) in assay [1] was over 5.30.

For `CC#CC(=O)N1CCC(C(=O)N(C)[C@H](C(=O)N[C@H]2Cc3nc(cs3)-c3ccc4c(c3)c(c(-c3cccnc3[C@H](C)OC)n4CC)CC(C)(C)COC(=O)[C@@H]3CCCN(N3)C2=O)C(C)C)C1` (atropisomer, axis not shown) [Example A168], the pIC50 in the assay with NCI-H358 (K-Ras G12C) (Homo sapiens, NCI-H358, 120 h) is 7.00 to 8.00; at KRAS G12D it was under 5.00; on KRAS Q61H, 5.00 to 6.00. In addition, the negative logarithm of the EC50 (pEC50) in assay [1] is over 5.30.

For `C=CC(=O)N1CC[C@H](C(=O)N(C)[C@H](C(=O)N[C@H]2Cc3cccc(c3)-c3ccc4c(c3)c(c(-c3cccnc3[C@H](C)OC)n4CC(F)F)CC(C)(C)COC(=O)[C@@H]3CCCN(N3)C2=O)C(C)C)C1` (atropisomer, axis not shown) [Example A335], the negative-log IC50 (pIC50) in the assay with NCI-H358 (K-Ras G12C) (Homo sapiens, NCI-H358, 120 h) was 7.00 to 8.00; at KRAS G12D, under 5.00; on KRAS Q61H, 5.00 to 6.00. In assay [1], the pEC50 is over 5.30.

Consider `C=CC(=O)N1CC[C@H](C(=O)N(C)[C@H](C(=O)N[C@H]2Cc3cc(cc(C(F)F)c3)-c3ccc4c(c3)c(c(-c3cccnc3[C@H](C)OC)n4CC)CC(C)(C)COC(=O)[C@@H]3CCCN(N3)C2=O)C(C)C)C1` (atropisomer, axis not shown) [Example A341, (3S)-1-acryloyl-N-((2S)-1-(((6^3S,4S)-2^5-(difluoromethyl)-1^1-ethyl-1^2-(2-((S)-1-methoxyethyl)pyridin-3-yl)-10,10-dimethyl-5,7-dioxo-6^1,6^2,6^3,6^4,6^5,6^6-hexahydro-1^1H-8-oxa-1(5,3)-indola-6(1,3)-pyridazina-2(1,3)-benzenacycloundecaphane-4-yl)amino)-3-methyl-1-oxobutan-2-yl)-N-methylpyrrolidine-3-carboxamide], for which the pIC50 in the assay with NCI-H358 (K-Ras G12C) (Homo sapiens, NCI-H358, 120 h) was 7.00 to 8.00; at KRAS G12D, 5.00 to 6.00; on KRAS Q61H, 6.00 to 7.00. Further, the negative-log EC50 (pEC50) in assay [1] is over 5.30.

As for `C=CC(=O)N1CC(OC[C@H](C(=O)N[C@H]2Cc3cccc(c3)-c3ccc4c(c3)c(c(-c3cccnc3[C@H](C)OC)n4CC(F)(F)F)CC(C)(C)COC(=O)[C@@H]3CCCN(N3)C2=O)C(C)C)C1` (atropisomer, axis not shown) [Example A344], the pIC50 with NCI-H358 (K-Ras G12C) (Homo sapiens, NCI-H358, 120 h) is over 8.00; at KRAS G12D it was under 5.00; at KRAS Q61H it was 6.00 to 7.00. Further, the negative logarithm of the EC50 (pEC50) in assay [1] was over 5.30.

Consider `C=CC(=O)N1CC(OC[C@H](C(=O)N[C@H]2Cc3cc(cc(C(F)F)c3)-c3ccc4c(c3)c(c(-c3cccnc3[C@H](C)OC)n4CC)CC(C)(C)COC(=O)[C@@H]3CCCN(N3)C2=O)C(C)C)C1` (atropisomer, axis not shown) [Example A345], for which the pIC50 was 6.00 to 7.00 with NCI-H358 (K-Ras G12C) (Homo sapiens, NCI-H358, 120 h); under 5.00 at KRAS G12D; 5.00 to 6.00 on KRAS Q61H. Besides, in assay [1], the pEC50 was over 5.30.

Regarding `C=CC(=O)N1CC2(COCCN2C(=O)N(C)[C@H](C(=O)N[C@H]2Cc3nc(cs3)-c3ccc4c(c3)c(c(-c3cccnc3[C@H](C)OC)n4CC)CC(C)(C)COC(=O)[C@@H]3CCCN(N3)C2=O)C(C)C)C1` (atropisomer, axis not shown) [Example A352], the negative logarithm of the IC50 (pIC50) in the assay with NCI-H358 (K-Ras G12C) (Homo sapiens, NCI-H358, 120 h) is over 8.00; on KRAS G12D, under 5.00; at KRAS Q61H, 5.00 to 6.00. The negative-log EC50 (pEC50) in assay [1] is over 5.30.

With `C=CC(=O)N1CC[C@@]2(C1)CN(C(=O)N(C)[C@H](C(=O)N[C@H]1Cc3nc(cs3)-c3ccc4c(c3)c(c(-c3cccnc3[C@H](C)OC)n4CC)CC(C)(C)COC(=O)[C@@H]3CCCN(N3)C1=O)C(C)C)CCO2` (atropisomer, axis not shown) [Example A353], the pIC50 is 7.00 to 8.00 in the assay on NCI-H358 (K-Ras G12C) (Homo sapiens, NCI-H358, 120 h); 6.00 to 7.00 at KRAS G12D; 7.00 to 8.00 on KRAS Q61H. Moreover, the negative-log EC50 (pEC50) in assay [1] was over 5.30.

Take `C=CC(=O)NC[C@H]1CCN1C(=O)N(C)[C@H](C(=O)N[C@H]1Cc2nc(cs2)-c2ccc3c(c2)c(c(-c2cccnc2[C@H](C)OC)n3CC)CC(C)(C)COC(=O)[C@@H]2CCCN(N2)C1=O)C(C)C` (atropisomer, axis not shown) [Example A356]: the pIC50 in the assay on NCI-H358 (K-Ras G12C) (Homo sapiens, NCI-H358, 120 h) was over 8.00; on KRAS G12D, 5.00 to 6.00; on KRAS Q61H, 6.00 to 7.00. Besides, in assay [1], the pEC50 was over 5.30.

Regarding `C=C(C)C(=O)N1CC(N(C)C(=O)N(C)[C@H](C(=O)N[C@H]2Cc3nc(cs3)-c3ccc4c(c3)c(c(-c3cccnc3[C@H](C)OC)n4CC)CC(C)(C)COC(=O)[C@@H]3CCCN(N3)C2=O)C(C)C)C1` (atropisomer, axis not shown) [Example A360], the pIC50 with NCI-H358 (K-Ras G12C) (Homo sapiens, NCI-H358, 120 h) is 7.00 to 8.00; at KRAS G12D, 5.00 to 6.00; on KRAS Q61H, 6.00 to 7.00. The pEC50 in assay [1] was over 5.30.

With `CCn1c(-c2cccnc2[C@H](C)OC)c2c3cc(ccc31)-c1csc(n1)C[C@H](NC(=O)[C@H](C(C)C)N(C)C(=O)N(C)C1CN(C(=O)/C=C/CN(C)C)C1)C(=O)N1CCC[C@H](N1)C(=O)OCC(C)(C)C2` (atropisomer, axis not shown) [Example A361], the pIC50 in the assay with NCI-H358 (K-Ras G12C) (Homo sapiens, NCI-H358, 120 h) is 7.00 to 8.00; on KRAS G12D, 5.00 to 6.00; at KRAS Q61H, 6.00 to 7.00. In addition, the negative-log EC50 (pEC50) in assay [1] is over 5.30.

As to `CCn1c(-c2cccnc2[C@H](C)OC)c2c3cc(ccc31)-c1csc(n1)C[C@H](NC(=O)CN1CC[C@@]3(CCN(C(=O)C#CC(C)(C)N4CCC4)C3)C1)C(=O)N1CCC[C@H](N1)C(=O)OCC(C)(C)C2` (atropisomer, axis not shown) [Example A364], the negative logarithm of the IC50 (pIC50) in the assay on NCI-H358 (K-Ras G12C) (Homo sapiens, NCI-H358, 120 h) is 6.00 to 7.00; on KRAS G12D, under 5.00; at KRAS Q61H, 5.00 to 6.00. Also, in assay [1], the pEC50 is over 5.30.

With `CCn1c(-c2cccnc2[C@H](C)OC)c2c3cc(ccc31)-c1csc(n1)C[C@H](NC(=O)CCO[C@@H]1CCN(C(=O)C#CC(C)(C)N3CCC3)C1)C(=O)N1CCC[C@H](N1)C(=O)OCC(C)(C)C2` (atropisomer, axis not shown) [Example A366], the pIC50 is 6.00 to 7.00 in the assay with NCI-H358 (K-Ras G12C) (Homo sapiens, NCI-H358, 120 h); 5.00 to 6.00 at KRAS G12D; 6.00 to 7.00 on KRAS Q61H. Besides, the pEC50 in assay [1] is over 5.30.

As for `C=CC(=O)N1CC[C@H](C(=O)N(C)[C@H](C(=O)N[C@H]2Cc3cc(cc(C(F)F)c3)-c3ccc4c(c3)c(c(-c3cccnc3[C@H](C)OC)n4CC(F)(F)F)CC(C)(C)COC(=O)[C@@H]3CCCN(N3)C2=O)C(C)C)C1` (atropisomer, axis not shown) [Example A372], the pIC50 in the assay on NCI-H358 (K-Ras G12C) (Homo sapiens, NCI-H358, 120 h) is 7.00 to 8.00; at KRAS G12D it was under 5.00; on KRAS Q61H, 6.00 to 7.00. Besides, the pEC50 in assay [1] is over 5.30.

The record behind these values is patent US11566007B2, “Ras inhibitors” (Revolution Medicines, Inc., priority 2019, dated 2023).
